Measurements: patent publication US20180099931A1 (AbbVie S.à.r.l., priority 2016, published 2018)
Where two headings read alike, the source gives them in different places.

Target: T1, F508delCFTR (Homo sapiens, UniProt P13569, DEL508-508)
T1 construct: expressed in transfected cells; host or cells: CFBE41o- human lung-derived epithelial cells (CFBE4lo-F508delCFTR-HRP), doxycycline-inducible
Experiment: Cell Surface Expression-Horse Radish Peroxidase (CSE-HRP) Assay;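 for Maximum % activity (with co-corrector): co-corrector and positive control are both the same reference corrector at 2 µM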;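 for Maximum % activity (without co-corrector): percent of the 2 µM on-plate positive control corrector response above DMSO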
Format: cell-based
Conditions: for Emax: read-out: Maximum % activity (without co-corrector)

[1] = test compound without co-corrector, read-out: EC50 (without co-corrector)
[2] = with co-corrector (2 μM of 3-[(2R,4R)-4-({[1-(2,2-difluoro-1,3-benzodioxol-5-yl)cyclopropyl]carbonyl}amino)-7-methoxy-3,4-dihydro-2H-chromen-2-yl]benzoic acid), read-out: EC50 (with co-corrector)
[3] = with co-corrector (2 μM), maximum at any tested concentration, normalized to on-plate positive control
[4] = without co-corrector, maximum at any tested concentration, normalized to on-plate positive control
[5] = test compound without co-corrector, maximum at any tested concentration, normalized to on-plate positive control
[6] = with co-corrector (2 μM of 3-[(2R,4R)-4-({[1-(2,2-difluoro-1,3-benzodioxol-5-yl)cyclopropyl]carbonyl}amino)-7-methoxy-3,4-dihydro-2H-chromen-2-yl]benzoic acid), maximum at any tested concentration, normalized to on-plate positive control
[7] = CSE-HRP, test compound without co-corrector, read-out: EC50 (without co-corrector)
[8] = CSE-HRP, with co-corrector (2 μM of 3-[(2R,4R)-4-({[1-(2,2-difluoro-1,3-benzodioxol-5-yl)cyclopropyl]carbonyl}amino)-7-methoxy-3,4-dihydro-2H-chromen-2-yl]benzoic acid), read-out: EC50 (with co-corrector)
[9] = CSE-HRP, with co-corrector (2 μM), maximum at any tested concentration, normalized to on-plate positive control
[10] = CSE-HRP, without co-corrector, maximum at any tested concentration, normalized to on-plate positive control

T1 sequence (P13569 with tags, fused parts or gaps DEL508-508): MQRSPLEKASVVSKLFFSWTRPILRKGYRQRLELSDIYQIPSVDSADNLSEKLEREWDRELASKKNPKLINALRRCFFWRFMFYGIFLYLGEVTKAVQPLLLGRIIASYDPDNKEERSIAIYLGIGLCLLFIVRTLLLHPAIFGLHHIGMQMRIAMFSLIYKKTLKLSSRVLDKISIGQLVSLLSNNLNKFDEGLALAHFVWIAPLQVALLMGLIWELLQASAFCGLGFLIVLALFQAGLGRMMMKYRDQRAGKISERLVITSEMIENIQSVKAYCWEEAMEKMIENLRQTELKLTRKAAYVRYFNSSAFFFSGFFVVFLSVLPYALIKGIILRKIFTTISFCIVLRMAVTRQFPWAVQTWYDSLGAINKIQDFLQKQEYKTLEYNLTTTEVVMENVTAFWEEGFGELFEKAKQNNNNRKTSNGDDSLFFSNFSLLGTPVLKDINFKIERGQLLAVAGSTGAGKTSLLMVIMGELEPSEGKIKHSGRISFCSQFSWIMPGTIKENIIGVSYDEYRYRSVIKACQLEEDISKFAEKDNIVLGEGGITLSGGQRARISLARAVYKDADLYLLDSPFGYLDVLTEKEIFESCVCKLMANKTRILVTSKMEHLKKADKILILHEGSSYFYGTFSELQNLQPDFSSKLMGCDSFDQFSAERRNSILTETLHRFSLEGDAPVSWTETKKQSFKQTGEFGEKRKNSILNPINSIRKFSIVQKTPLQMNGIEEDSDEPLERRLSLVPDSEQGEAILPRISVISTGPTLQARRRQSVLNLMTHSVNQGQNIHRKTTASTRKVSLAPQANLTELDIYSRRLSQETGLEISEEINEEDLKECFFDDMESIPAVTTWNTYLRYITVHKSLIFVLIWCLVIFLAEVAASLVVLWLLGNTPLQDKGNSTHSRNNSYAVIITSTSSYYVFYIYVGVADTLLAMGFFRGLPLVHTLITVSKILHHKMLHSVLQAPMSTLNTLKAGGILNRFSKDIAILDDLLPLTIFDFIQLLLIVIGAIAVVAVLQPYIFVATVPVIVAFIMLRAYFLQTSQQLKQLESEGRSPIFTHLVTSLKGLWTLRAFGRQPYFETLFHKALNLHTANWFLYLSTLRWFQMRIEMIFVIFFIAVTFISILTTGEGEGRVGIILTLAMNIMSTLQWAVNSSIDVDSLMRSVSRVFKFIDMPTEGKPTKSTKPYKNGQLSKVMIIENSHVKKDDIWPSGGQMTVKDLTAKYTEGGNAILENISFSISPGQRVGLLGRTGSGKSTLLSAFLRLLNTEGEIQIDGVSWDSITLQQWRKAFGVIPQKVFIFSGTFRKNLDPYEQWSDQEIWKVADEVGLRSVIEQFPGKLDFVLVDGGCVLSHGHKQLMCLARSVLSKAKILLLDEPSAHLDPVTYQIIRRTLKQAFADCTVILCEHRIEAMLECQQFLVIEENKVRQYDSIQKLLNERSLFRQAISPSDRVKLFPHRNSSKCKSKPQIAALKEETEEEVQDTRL

EC50 [1] | EC50 [2] | Maximum % activity (with co-corrector) [3] | Emax [4] | Emax [5] | Maximum % activity (with co-corrector) [6] | EC50 [7] | EC50 [8] | Maximum % activity (with co-corrector) [9] | Emax [10] | Maximum % activity (without co-corrector) [4] | SMILES
1000 to 10000 nM | 1000 to 10000 nM | – | – | < 100% | +++ (≥350) | – | – | – | – | – | COc1ccc(C(C)(C)C)cc1CN[C@H]1[C@H](C(C)(C)C)[C@@H](C(=O)O)N(C(=O)C2CC23CCOCC3)[C@H]1c1ccccc1 (some centres unmarked) [II-442]
– | – | – | – | – | – | 1000 to 10000 nM | 1000 to 10000 nM | +++ (≥350) | 100 to 200% | – | COc1cccc([C@@H]2[C@H](NCc3cc(Cl)ccc3OC)[C@@H](C(C)(C)C)[C@H](C(=O)O)N2C(=O)C2CCCCC2)n1 (racemic) [II-19]
< 1000 nM | < 1000 nM | ++ (≥150 and <350) | – | < 100% | – | – | – | – | – | – | CC(C)(C)[C@H]1[C@H](NCc2ccc(F)cc2C(F)(F)F)[C@H](c2ccccc2)N(C(=O)C2CCCCC2)[C@@H]1C(=O)O [III-123]
– | – | – | – | – | – | 1000 to 10000 nM | 1000 to 10000 nM | +++ (≥350) | > 200% | – | COc1ccc(C(C)(C)C)cc1CN[C@H]1[C@H](C(C)(C)OC)[C@@H](C(=O)O)N(C(=O)C2CCCCC2)[C@H]1c1ccccc1OC [II-294]
1000 to 10000 nM | 1000 to 10000 nM | – | – | 100 to 200% | +++ (≥350) | – | – | – | – | – | COc1ccc(C(C)(C)C)cc1CN[C@H]1[C@H](C(C)(C)C)[C@@H](C(=O)O)N(C(=O)C2CCC(O)(C(F)(F)F)CC2)[C@H]1c1cccnc1N(C)C (some centres unmarked) [II-463]
> 10000 nM | 1000 to 10000 nM | ++ (≥150 and <350) | – | < 100% | – | – | – | – | – | – | COc1cc(CN[C@H]2[C@H](C(C)(C)C)[C@@H](C(=O)O)N(C(=O)C3CCCCC3)[C@H]2c2ccccc2)cc(OC)c1 [III-133]
1000 to 10000 nM | < 1000 nM | – | – | > 200% | +++ (≥350) | – | – | – | – | – | COc1ccc(C(C)(C)C)cc1CN[C@H]1[C@H](C(C)(C)C)[C@@H](C(=O)O)N(C(=O)C2CC=CC2)[C@H]1c1ccccc1 [II-321]
– | – | – | – | – | – | 1000 to 10000 nM | 1000 to 10000 nM | +++ (≥350) | < 100% | – | COc1ccc(C(C)(C)C)cc1CN[C@H]1[C@H](C(C)(C)C)[C@@H](C(=O)O)N(C(=O)c2cc(Cl)c(=O)n(C(C)C)c2)[C@H]1c1ccccc1 [II-223]
> 10000 nM | > 10000 nM | + (<150) | – | < 100% | – | – | – | – | – | – | CC(C)(C)NC(=O)c1cncc(N[C@H]2[C@H](C(C)(C)C)[C@@H](C(=O)O)N(C(=O)C3CCCCC3)[C@H]2c2ccccc2)c1 [III-161]
> 10000 nM | 1000 to 10000 nM | + (<150) | – | < 100% | – | – | – | – | – | – | CC(C)(C)[C@@H]1[C@@H](NCc2cc(F)ccc2S(C)(=O)=O)[C@@H](c2ccccc2)N(C(=O)C2CCCCC2)[C@H]1C(=O)O (racemic) [III-108]
1000 to 10000 nM | < 1000 nM | – | – | > 200% | +++ (≥350) | – | – | – | – | – | COc1ccc(C23CC(C2)C3)cc1CN[C@H]1[C@H](C(C)(C)C)[C@@H](C(=O)O)N(C(=O)C2CCCCC2)[C@H]1c1ccccc1F [II-517]
< 1000 nM | < 1000 nM | +++ (≥350) | – | > 200% | – | – | – | – | – | – | COc1ccc(C(C)(C)C)cc1CN[C@H]1[C@H](C(C)(C)C)[C@@H](C(=O)O)N(C(=O)C2CCc3ccccc3C2)[C@H]1c1ccccc1 (some centres unmarked) [III-191]
– | – | – | – | – | – | 1000 to 10000 nM | < 1000 nM | +++ (≥350) | 100 to 200% | – | COc1ccc(C(C)(C)C)cc1CN[C@H]1[C@H](C(C)(C)C)[C@@H](C(=O)O)N(C(=O)Cc2cc(F)cc(F)c2)[C@H]1c1ccccc1 [II-200]
1000 to 10000 nM | 1000 to 10000 nM | – | – | < 100% | ++ (≥150 and <350) | – | – | – | – | – | COc1ccc(C(C)(C)C)cc1CN[C@H]1[C@H](C(C)(C)C)[C@@H](C(=O)O)N(C(=O)C2Cc3ccccc3O2)[C@H]1c1cccnc1N(C)C (single isomer, unassigned) [II-421]
1000 to 10000 nM | < 1000 nM | – | – | > 200% | +++ (≥350) | – | – | – | – | – | COc1ccc(C23CC(C2)C3)cc1CN[C@H]1[C@H](C(C)(C)C)[C@@H](C(=O)O)N(C(=O)C2CCCCC2)[C@H]1c1cccnc1N(C)C [II-520]
– | – | – | – | – | – | > 10000 nM | 1000 to 10000 nM | ++ (≥150 and <350) | < 100% | – | COc1cc(CN[C@H]2[C@H](C(C)(C)C)[C@@H](C(=O)O)N(C(=O)C3CCCCC3)[C@H]2c2ccccc2)ccc1F [II-112]
< 1000 nM | < 1000 nM | – | – | > 200% | +++ (≥350) | – | – | – | – | – | COc1ccc(C(C)(C)C)cc1CN[C@H]1[C@H](C(C)(C)C)[C@@H](C(=O)O)N(C(=O)C2CCc3ccccc32)[C@H]1c1ccccc1 (some centres unmarked) [II-337]
– | – | – | – | – | – | 1000 to 10000 nM | 1000 to 10000 nM | +++ (≥350) | > 200% | – | COc1cc(Cl)ccc1CN[C@@H]1[C@@H](C(C)(C)C)[C@H](C(=O)O)N(C(=O)C2CCOC(C)(C)C2)[C@@H]1c1ccccc1N(C)C (mixture of isomers) [II-26]

The next lines start with the compound.

SMILES | EC50 [1] | EC50 [2] | Maximum % activity (with co-corrector) [3] | Emax [4] | Emax [5] | Maximum % activity (with co-corrector) [6] | EC50 [7] | EC50 [8] | Maximum % activity (with co-corrector) [9] | Emax [10] | Maximum % activity (without co-corrector) [4]
COc1ccc(C(F)(F)F)cc1CN[C@H]1[C@H](C(C)(C)C)[C@@H](C(=O)O)N(C(=O)C2CCC(C)(C)O2)[C@H]1c1ccccc1 (some centres unmarked) [Example I-164] | 1000 to 10000 nM | 1000 to 10000 nM | +++ (≥350) | > 200% | – | – | – | – | – | – | –
COc1ccc(C(C)(C)C)cc1CN[C@H]1[C@H](C(C)(C)C)[C@@H](C(=O)O)N(C(=O)[C@@H]2CCCC(F)(F)C2)[C@H]1c1ccccc1 [Example 31, (2S,3S,4S,5S)-3-tert-butyl-4-{[(5-tert-butyl-2-methoxyphenyl)methyl]amino}-1-[(1R)-3,3-difluorocyclohexane-1-carbonyl]-5-phenylpyrrolidine-2-carboxylic acid] | < 1000 nM | < 1000 nM | +++ (≥350) | > 200% | – | – | – | – | – | – | –
COc1ccc(C(C)(C)C)cc1CN[C@H]1[C@H](C(C)(C)C)[C@@H](C(=O)O)N(C(=O)C2CCCC(F)(F)C2)[C@H]1c1cccnc1N(C)C (single isomer, unassigned) [Example 44, (2S,3S,4S,5S)-3-tert-butyl-4-{[(5-tert-butyl-2-methoxyphenyl)methyl]amino}-1-[(1S*)-3,3-difluorocyclohexane-1-carbonyl]-5-[2-(dimethylamino)pyridin-3-yl]pyrrolidine-2-carboxylic acid] | 1000 to 10000 nM | < 1000 nM | +++ (≥350) | – | – | – | – | – | – | – | +++ (≥200)
COc1ccc(C(C)(C)C)cc1CN[C@H]1[C@H](C(C)(C)C)[C@@H](C(=O)O)N(C(=O)[C@@H]2C[C@H]3CC[C@@H]2O3)[C@H]1c1ccccc1C(C)C (relative stereo) [Example 74, (2S,3S,4S,5S)-3-tert-butyl-4-{[(5-tert-butyl-2-methoxyphenyl)methyl]amino}-1-[(1S*,2R*,4R*)-7-oxabicyclo[2.2.1]heptane-2-carbonyl]-5-[2-(propan-2-yl)phenyl]pyrrolidine-2-carboxylic acid] | 1000 to 10000 nM | < 1000 nM | +++ (≥350) | > 200% | – | – | – | – | – | – | –
Cc1cc(C(F)(F)F)cc(N[C@H]2[C@H](C(C)(C)C)[C@@H](C(=O)O)N(C(=O)C3CCCCC3)[C@H]2c2ccccc2)n1 [Example 4, (2S,3S,4S,5S)-3-tert-butyl-1-(cyclohexanecarbonyl)-4-{[6-methyl-4-(trifluoromethyl)pyridin-2-yl]amino}-5-phenylpyrrolidine-2-carboxylic acid] | 1000 to 10000 nM | 1000 to 10000 nM | +++ (≥350) | < 100% | – | – | – | – | – | – | –
COc1ccc(C(C)(C)C)cc1CN[C@H]1[C@H](C(C)(C)C)[C@@H](C(=O)O)N(C(=O)C2C3CCCC32)[C@H]1c1ccccc1 (stereo partly drawn) [Example 46, (2S,3S,4S,5S)-1-(bicyclo[3.1.0]hexane-6-carbonyl)-3-tert-butyl-4-{[(5-tert-butyl-2-methoxyphenyl)methyl]amino}-5-phenylpyrrolidine-2-carboxylic acid] | 1000 to 10000 nM | < 1000 nM | +++ (≥350) | > 200% | – | – | – | – | – | – | –
CC(C)(C)[C@H]1[C@H](NCC2(c3ccccc3Cl)CCOCC2)[C@H](c2ccccc2)N(C(=O)C2CCCCC2)[C@@H]1C(=O)O [Example I-219] | 1000 to 10000 nM | 1000 to 10000 nM | +++ (≥350) | 100 to 200% | – | – | – | – | – | – | –
COc1ccc(C(C)(C)C)cc1CN[C@H]1[C@H](C(C)(C)C)[C@@H](C(=O)O)N(C(=O)C2CC(C)(C)OC(C)(C)C2)[C@H]1c1ccccc1 [Example 54, (2S,3S,4S,5S)-3-tert-butyl-4-{[(5-tert-butyl-2-methoxyphenyl)methyl]amino}-5-phenyl-1-(2,2,6,6-tetramethyloxane-4-carbonyl)pyrrolidine-2-carboxylic acid] | 1000 to 10000 nM | < 1000 nM | +++ (≥350) | > 200% | – | – | – | – | – | – | –
